Legend:
[1] = system: broccoli sprout-derived myrosinase; assay: Consumption of glucoraphanin by myrosinase as a function of ascorbic acid concentration (Example 3); type: biochemical
Experimental: A […] Interaction Chromatographic (HILIC) method was developed, comprising the following conditions: • Column: Waters BEH Amide, 1.7-μm particle size; 2.1 mm×100 mm; • Mobile Phase: 20% 10 mM Ammonium Acetate, pH 5.0; 80% acetonitrile; • Separation mode: isocratic; • Column Temperature: 70° C.; • Flow Rate: 0.7 mL/min.
About 250 mg of broccoli seed extract containing about 12% (w/w) glucoraphanin were subjected to hydrolysis by a fixed concentration of broccoli sprout-derived myrosinase in the presence of variable concentration of ascorbic acid, ranging from 0 to 600 μmoles/Liter. The reaction mixtures were thermostated at 38° C.; aliquots were withdrawn every 15 minutes for 60 minutes, and concentration of glucoraphanin determined chromatographically. The rate of glucoraphanin consumption was interpreted as the rate its conversion to sulforaphane. Graphical representation of glucoraphanin content reduction as a function of increasing ascorbic acid concentration results in a series of linear plots; the slopes of the linear regression lines reflect the rate of glucoraphanin consumption, in pmoles/minute. It is apparent that in the presence of 600 μmoles/Liter concentration of ascorbic acid, the reaction rate increased 13-fold relative to that which proceeded in the absence of modulatory effects of ascorbic acid.

myrosinase = assay: Equimolar conversion of glucoraphanin to sulforaphane by myrosinase, HPLC (Example 4); type: biochemical, broccoli
Experimental: A two-part experiment was conducted to further elucidate the role of ascorbic acid in modulating myrosinase activity. All solutions were prepared in 20 mM Tris-buffered saline, at pH 7.5, previously identified as an optimal for myrosinase activity; each sample tube had 100 mg of freeze-dried broccoli powder accurately weighed in as a source of myrosinase. Experiment was conducted at 38° C. for 2 hours, with sample aliquots removed in 30-minute increments, and both glucoraphanin and sulforaphane content assessed by HPLC. […] A control sample contained no ascorbic acid, and the enzymatic conversion proceeded unassisted by a co-factor. PART 1. In the presence of the fixed concentration of ascorbic acid, 1 mmol/Liter, an increasing amount of broccoli seed extract (about 12% glucoraphanin, w/w) was added, ranging from 250 mg to 500 mg. PART 2. While keeping the amount of broccoli seed extract fixed at 250 mg, the concentration of ascorbic acid was varied from 0.4 mmol/Liter to 3.8 mmol/Liter.

[2] = GR 250 mg AA 0.0 mM (control), 0 min
[3] = GR 250 mg AA 0.0 mM (control), 30 min
[4] = GR 250 mg AA 0.0 mM (control), 60 min
[5] = GR 250 mg AA 0.0 mM (control), 90 min
[6] = GR 250 mg AA 0.0 mM (control), 120 min
[7] = PART 1, GR 250 mg AA 1.0 mM, 0 min
[8] = PART 2, GR 250 mg AA 1.0 mM, 0 min

For `C[S+]([O-])CCCC/C(=N\OS(=O)(=O)O)S[C@@H]1O[C@H](CO)[C@@H](O)[C@H](O)[C@H]1O` (some centres unmarked) [GR, 4-methylsulfinylbutyl glucosinolate], the “Slope (rate of glucoraphanin consumption)” value (“Slope” below) ([1]; ascorbic acid 0 μM) was -0.09293 µmol/min, the “Glucoraphanin content (μmoles GR)” value ([1]; ascorbic acid 0 μM, 0 min) was 93.36 µmol and the “Glucoraphanin content (μmoles GR)” value ([1]; ascorbic acid 0 μM, 15 min) was 92.24 µmol. For the same compound, the “Glucoraphanin content (μmoles GR)” value ([1]; ascorbic acid 0 μM, 30 min) was 90.71 µmol, the “Glucoraphanin content (μmoles GR)” value ([1]; ascorbic acid 0 μM, 45 min) was 89.44 µmol and the “Glucoraphanin content (μmoles GR)” value ([1]; ascorbic acid 0 μM, 60 min) was 87.79 µmol. The “Slope” value ([1]; ascorbic acid 50 μM) was -0.286 µmol/min, the “Glucoraphanin content (μmoles GR)” value ([1]; ascorbic acid 50 μM, 0 min) was 93.36 µmol and the “Glucoraphanin content (μmoles GR)” value ([1]; ascorbic acid 50 μM, 15 min) was 89.20 µmol. For the same compound, the “Glucoraphanin content (μmoles GR)” value ([1]; ascorbic acid 50 μM, 30 min) was 84.24 µmol, the “Glucoraphanin content (μmoles GR)” value ([1]; ascorbic acid 50 μM, 45 min) was 80.30 µmol and the “Glucoraphanin content (μmoles GR)” value ([1]; ascorbic acid 50 μM, 60 min) was 76.36 µmol. For the same compound, the “Slope” value ([1]; ascorbic acid 125 μM) was -0.5622 µmol/min, the “Glucoraphanin content (μmoles GR)” value ([1]; ascorbic acid 125 μM, 0 min) was 93.36 µmol and the “Glucoraphanin content (μmoles GR)” value ([1]; ascorbic acid 125 μM, 15 min) was 84.52 µmol. The “Glucoraphanin content (μmoles GR)” value ([1]; ascorbic acid 125 μM, 30 min) was 75.92 µmol, the “Glucoraphanin content (μmoles GR)” value ([1]; ascorbic acid 125 μM, 45 min) was 68.09 µmol and the “Glucoraphanin content (μmoles GR)” value ([1]; ascorbic acid 125 μM, 60 min) was 59.41 µmol. For the same compound, the “Slope” value ([1]; ascorbic acid 250 μM) was -0.7901 µmol/min, the “Slope” value ([1]; ascorbic acid 250 μM Filtered) was -0.4714 µmol/min and the “Glucoraphanin content (μmoles GR)” value ([1]; ascorbic acid 250 μM Filtered, 0 min) was 93.36 µmol. For the same compound, the “Glucoraphanin content (μmoles GR)” value ([1]; ascorbic acid 250 μM Filtered, 15 min) was 86.31 µmol, the “Glucoraphanin content (μmoles GR)” value ([1]; ascorbic acid 250 μM Filtered, 30 min) was 79.44 µmol and the “Glucoraphanin content (μmoles GR)” value ([1]; ascorbic acid 250 μM Filtered, 45 min) was 71.94 µmol. For the same compound, the “Glucoraphanin content (μmoles GR)” value ([1]; ascorbic acid 250 μM Filtered, 60 min) was 65.18 µmol, the “Glucoraphanin content (μmoles GR)” value ([1]; ascorbic acid 250 μM, 0 min) was 93.36 µmol and the “Glucoraphanin content (μmoles GR)” value ([1]; ascorbic acid 250 μM, 15 min) was 80.95 µmol. The “Glucoraphanin content (μmoles GR)” value ([1]; ascorbic acid 250 μM, 30 min) was 69.06 µmol, the “Glucoraphanin content (μmoles GR)” value ([1]; ascorbic acid 250 μM, 45 min) was 57.63 µmol and the “Glucoraphanin content (μmoles GR)” value ([1]; ascorbic acid 250 μM, 60 min) was 45.76 µmol. For the same compound, the “Slope” value ([1]; ascorbic acid 400 μM) was -1.007 µmol/min, the “Glucoraphanin content (μmoles GR)” value ([1]; ascorbic acid 400 μM, 0 min) was 93.36 µmol and the “Glucoraphanin content (μmoles GR)” value ([1]; ascorbic acid 400 μM, 15 min) was 78.32 µmol. The “Glucoraphanin content (μmoles GR)” value ([1]; ascorbic acid 400 μM, 30 min) was 62.78 µmol, the “Glucoraphanin content (μmoles GR)” value ([1]; ascorbic acid 400 μM, 45 min) was 47.67 µmol and the “Glucoraphanin content (μmoles GR)” value ([1]; ascorbic acid 400 μM, 60 min) was 33.15 µmol. The “Slope” value ([1]; ascorbic acid 600 μM) was -1.2 µmol/min, the “Glucoraphanin content (μmoles GR)” value ([1]; ascorbic acid 600 μM, 0 min) was 93.36 µmol and the “Glucoraphanin content (μmoles GR)” value ([1]; ascorbic acid 600 μM, 15 min) was 75.02 µmol. For the same compound, the “Glucoraphanin content (μmoles GR)” value ([1]; ascorbic acid 600 μM, 30 min) was 55.66 µmol, the “Glucoraphanin content (μmoles GR)” value ([1]; ascorbic acid 600 μM, 45 min) was 37.50 µmol and the “Glucoraphanin content (μmoles GR)” value ([1]; ascorbic acid 600 μM, 60 min) was 22.09 µmol. For the same compound, the “Glucoraphanin” value (myrosinase; [2]) was 58.02 µmol, the “Sulforaphane” value (myrosinase; [2]) was 3.42 µmol and the “Glucoraphanin” value (myrosinase; [3]) was 48.57 µmol. The “Sulforaphane” value (myrosinase; [3]) was 12.08 µmol, the “Glucoraphanin” value (myrosinase; [4]) was 37.52 µmol and the “Sulforaphane” value (myrosinase; [4]) was 22.27 µmol. For the same compound, the “Glucoraphanin” value (myrosinase; [5]) was 28.58 µmol, the “Sulforaphane” value (myrosinase; [5]) was 33.17 µmol and the “Glucoraphanin” value (myrosinase; [6]) was 15.67 µmol. The “Sulforaphane” value (myrosinase; [6]) was 42.89 µmol, the “Glucoraphanin” value (myrosinase; GR 250 mg AA 0.4 mM, 0 min) was 45.66 µmol and the “Sulforaphane” value (myrosinase; GR 250 mg AA 0.4 mM, 0 min) was 15.96 µmol. For the same compound, the “Sulforaphane” value (myrosinase; GR 250 mg AA 0.4 mM, 30 min) was 62.06 µmol, the “Sulforaphane” value (myrosinase; GR 250 mg AA 0.4 mM, 60 min) was 61.01 µmol and the “Sulforaphane” value (myrosinase; GR 250 mg AA 0.4 mM, 90 min) was 60.88 µmol. The “Sulforaphane” value (myrosinase; GR 250 mg AA 0.4 mM, 120 min) was 56.90 µmol, the “Glucoraphanin” value (myrosinase; GR 250 mg AA 2.0 mM, 0 min) was 24.94 µmol and the “Sulforaphane” value (myrosinase; GR 250 mg AA 2.0 mM, 0 min) was 36.05 µmol. The “Sulforaphane” value (myrosinase; GR 250 mg AA 2.0 mM, 30 min) was 60.85 µmol, the “Sulforaphane” value (myrosinase; GR 250 mg AA 2.0 mM, 60 min) was 59.78 µmol and the “Sulforaphane” value (myrosinase; GR 250 mg AA 2.0 mM, 90 min) was 59.85 µmol. The “Sulforaphane” value (myrosinase; GR 250 mg AA 2.0 mM, 120 min) was 58.08 µmol, the “Glucoraphanin” value (myrosinase; GR 250 mg AA 2.9 mM, 0 min) was 22.24 µmol and the “Sulforaphane” value (myrosinase; GR 250 mg AA 2.9 mM, 0 min) was 38.20 µmol. The “Sulforaphane” value (myrosinase; GR 250 mg AA 2.9 mM, 30 min) was 59.95 µmol, the “Sulforaphane” value (myrosinase; GR 250 mg AA 2.9 mM, 60 min) was 59.34 µmol and the “Sulforaphane” value (myrosinase; GR 250 mg AA 2.9 mM, 90 min) was 58.77 µmol. The “Sulforaphane” value (myrosinase; GR 250 mg AA 2.9 mM, 120 min) was 56.99 µmol, the “Glucoraphanin” value (myrosinase; GR 250 mg AA 3.8 mM, 0 min) was 21.70 µmol and the “Sulforaphane” value (myrosinase; GR 250 mg AA 3.8 mM, 0 min) was 37.87 µmol. For the same compound, the “Sulforaphane” value (myrosinase; GR 250 mg AA 3.8 mM, 30 min) was 58.77 µmol, the “Sulforaphane” value (myrosinase; GR 250 mg AA 3.8 mM, 60 min) was 57.79 µmol and the “Sulforaphane” value (myrosinase; GR 250 mg AA 3.8 mM, 90 min) was 58.41 µmol. The “Sulforaphane” value (myrosinase; GR 250 mg AA 3.8 mM, 120 min) was 56.17 µmol, the “Glucoraphanin” value (myrosinase; GR 300 mg AA 1.0 mM, 0 min) was 49.31 µmol and the “Sulforaphane” value (myrosinase; GR 300 mg AA 1.0 mM, 0 min) was 24.18 µmol. For the same compound, the “Sulforaphane” value (myrosinase; GR 300 mg AA 1.0 mM, 30 min) was 74.40 µmol, the “Sulforaphane” value (myrosinase; GR 300 mg AA 1.0 mM, 60 min) was 73.04 µmol and the “Sulforaphane” value (myrosinase; GR 300 mg AA 1.0 mM, 90 min) was 72.19 µmol. The “Sulforaphane” value (myrosinase; GR 300 mg AA 1.0 mM, 120 min) was 70.56 µmol, the “Glucoraphanin” value (myrosinase; GR 350 mg AA 1.0 mM, 0 min) was 61.41 µmol and the “Sulforaphane” value (myrosinase; GR 350 mg AA 1.0 mM, 0 min) was 25.00 µmol. The “Sulforaphane” value (myrosinase; GR 350 mg AA 1.0 mM, 30 min) was 84.92 µmol, the “Sulforaphane” value (myrosinase; GR 350 mg AA 1.0 mM, 60 min) was 84.02 µmol and the “Sulforaphane” value (myrosinase; GR 350 mg AA 1.0 mM, 90 min) was 83.19 µmol. For the same compound, the “Sulforaphane” value (myrosinase; GR 350 mg AA 1.0 mM, 120 min) was 80.02 µmol, the “Glucoraphanin” value (myrosinase; GR 400 mg AA 1.0 mM, 0 min) was 71.35 µmol and the “Sulforaphane” value (myrosinase; GR 400 mg AA 1.0 mM, 0 min) was 26.71 µmol. The “Glucoraphanin” value (myrosinase; GR 400 mg AA 1.0 mM, 30 min) was 1.56 µmol, the “Sulforaphane” value (myrosinase; GR 400 mg AA 1.0 mM, 30 min) was 96.60 µmol and the “Sulforaphane” value (myrosinase; GR 400 mg AA 1.0 mM, 60 min) was 95.38 µmol. For the same compound, the “Sulforaphane” value (myrosinase; GR 400 mg AA 1.0 mM, 90 min) was 93.39 µmol, the “Sulforaphane” value (myrosinase; GR 400 mg AA 1.0 mM, 120 min) was 91.16 µmol and the “Glucoraphanin” value (myrosinase; GR 500 mg AA 1.0 mM, 0 min) was 89.41 µmol. For the same compound, the “Sulforaphane” value (myrosinase; GR 500 mg AA 1.0 mM, 0 min) was 33.52 µmol, the “Glucoraphanin” value (myrosinase; GR 500 mg AA 1.0 mM, 30 min) was 1.01 µmol and the “Sulforaphane” value (myrosinase; GR 500 mg AA 1.0 mM, 30 min) was 120.16 µmol. The “Sulforaphane” value (myrosinase; GR 500 mg AA 1.0 mM, 60 min) was 116.45 µmol, the “Sulforaphane” value (myrosinase; GR 500 mg AA 1.0 mM, 90 min) was 118.45 µmol and the “Sulforaphane” value (myrosinase; GR 500 mg AA 1.0 mM, 120 min) was 112.34 µmol. For the same compound, the “Glucoraphanin” value (myrosinase; [7]) was 40.07 µmol, the “Sulforaphane” value (myrosinase; [7]) was 21.51 µmol and the “Sulforaphane” value (myrosinase; PART 1, GR 250 mg AA 1.0 mM, 30 min) was 61.95 µmol. The “Sulforaphane” value (myrosinase; PART 1, GR 250 mg AA 1.0 mM, 60 min) was 60.20 µmol, the “Sulforaphane” value (myrosinase; PART 1, GR 250 mg AA 1.0 mM, 90 min) was 60.04 µmol and the “Sulforaphane” value (myrosinase; PART 1, GR 250 mg AA 1.0 mM, 120 min) was 58.25 µmol. For the same compound, the “Glucoraphanin” value (myrosinase; [8]) was 35.24 µmol, the “Sulforaphane” value (myrosinase; [8]) was 26.49 µmol and the “Sulforaphane” value (myrosinase; PART 2, GR 250 mg AA 1.0 mM, 30 min) was 62.19 µmol. For the same compound, the “Sulforaphane” value (myrosinase; PART 2, GR 250 mg AA 1.0 mM, 60 min) was 60.62 µmol, the “Sulforaphane” value (myrosinase; PART 2, GR 250 mg AA 1.0 mM, 90 min) was 60.41 µmol and the “Sulforaphane” value (myrosinase; PART 2, GR 250 mg AA 1.0 mM, 120 min) was 59.10 µmol. For the same compound, the “time to complete conversion of glucoraphanin to sulforaphane” value (myrosinase; almost all the reaction mixtures) was no more than 30 min and the “stoichiometry of conversion of glucoraphanin to sulforaphane” value (myrosinase; control sample, without ascorbic acid) was “equimolar conversion of glucoraphanin to sulforaphane”.
